IC50 data for twelve compounds are collected here from ChEMBL document CHEMBL1150905, “Cytotoxic quassinoids from Simaba cedron” (J Nat Prod, 1998).

Each structure is given as a SMILES string. ≈ marks a conversion by molar mass, not a printed value.

The test system of the experiment is P388. The experiment can be described thus: Cytotoxicity against mouse P388 cells after 3 days by MTT assay. The note with it: P388, 72 h. The class given is functional, cell-based. A general note: Tetrazolium assays rely on reduction of a dye to a coloured formazan, in cell work by metabolically active cells.

For the compound `CC1=CC(=O)O[C@@H]1[C@@]1(C)C[C@H]2OC(=O)C[C@H]3[C@@H](C)[C@@H](O)[C@]4(O)OC[C@]23[C@@H]14` [AILANQUASSIN A], the IC50 (commonly the concentration needed to halve the response being measured) was 39 mg/L (≈ 107 µM).
Take `CC1=CC(=O)[C@@H](O)[C@]2(C)[C@H]3[C@@H](O)[C@H](O)[C@@]4(C)OC[C@@]35[C@@H](C[C@@H]12)OC(=O)[C@H](OC(=O)CC(C)C)[C@@H]45` [CEDRONOLACTONE A]: the half-inhibitory concentration (IC50) stood at 0.0074 mg/L (≈ 0.0155 µM).
`CC1=CC(=O)O[C@H]1[C@@]1(C)C[C@H]2OC(=O)C[C@H]3[C@@H](C)[C@@H](O)[C@]4(O)OC[C@]23[C@@H]14` [CEDRONOLACTONE B] returned an IC50 of 6.5 mg/L (≈ 17.8 µM).
Consider `CC1=CC(=O)O[C@H]1[C@@]1(C)C[C@H]2OC(=O)[C@H](O)[C@H]3[C@@H](C)[C@@H](O)[C@]4(O)OC[C@@]32[C@@H]14` [CEDRONOLACTONE C], for which the IC50 came out at 49 mg/L (≈ 129 µM).
For `CC1=CC(=O)[C@@H](O)[C@]2(C)[C@H]3[C@@]4(O)OC[C@@]35[C@@H](C[C@@H]12)OC(=O)C[C@H]5[C@@H](C)[C@H]4O` [CHAPARRINONE] the value was 0.92 mg/L (≈ 2.43 µM); for `CC1=C[C@H](O)[C@@H](O)[C@]2(C)[C@H]3[C@@]4(O)OC[C@@]35[C@@H](C[C@@H]12)OC(=O)C[C@H]5[C@@H](C)[C@H]4O` [CHAPARRIN], greater than 100 mg/L; for `CC1=CC(=O)[C@@H](O)[C@]2(C)[C@H]3[C@]4(O)OC[C@]35[C@H]([C@@H](C)[C@H]4O)[C@@H](O)C(=O)O[C@@H]5C[C@@H]12` [GLAUCARUBOLONE], 1.4 mg/L (≈ 3.55 µM).
Consider `CC1=C[C@H](O)[C@@H](O)[C@]2(C)[C@H]3[C@@]4(O)OC[C@]35[C@H]([C@@H](C)[C@H]4O)[C@@H](O)C(=O)O[C@@H]5C[C@@H]12` [GLAUCARUBOL], for which the IC50 was greater than 100 mg/L.
For `CC(=O)O[C@H]1C[C@@](C)([C@H]2OC(=O)C[C@@H]2CO)C2=CC(=O)O[C@@H]3C[C@@H]4[C@](C)(C(=O)C=C[C@@]4(C)O)[C@@H]1[C@]23C` [GUANEPOLIDE], the IC50 amounted to 70 mg/L (≈ 139 µM).
For `CC1=CC(=O)O[C@@H]1[C@@]1(C)C[C@H]2OC(=O)[C@H](O)[C@H]3[C@@H](C)[C@@H](O)[C@]4(O)OC[C@@]32[C@@H]14` [POLYANDROL] the value was 17 mg/L (≈ 44.7 µM); for `CC[C@@H](C)C(=O)O[C@H]1C(=O)O[C@@H]2C[C@H]3C(C)=CC(=O)[C@@H](O)[C@]3(C)[C@H]3[C@@H](O)[C@H](O)[C@]4(C)OC[C@]32[C@@H]14` [SIMALIKALACTONE D], 0.0055 mg/L (≈ 0.0115 µM); for `CC1=CC(=O)[C@@H](O)[C@]2(C)[C@H]3[C@@H](O)[C@H](O)[C@@]4(C)OC[C@@]35[C@@H](C[C@@H]12)OC(=O)[C@H](O)[C@@H]45` [YADANZIOLIDE C], 2.4 mg/L (≈ 6.08 µM).
